“And” between values parts separate entries of the source, which are not always exact repeats. Equal entries are not always repeated.
Assays:
[1] = 101 kPa, Liquid; for speed of sound: Sing-around technique in a fixed-path interferometer; for mass density: Vibrating tube method
[2] = xn = mol fraction of the nth substance listed; conditions: 101 kPa, Liquid; for speed of sound: Sing-around technique in a fixed-path interferometer; for mass density: Vibrating tube method

CCC(O)CO (stereo not drawn) [1,2-butanediol]
[1]
Conditions | mass density | speed of sound
298.15 K | 998.509 kg/m3 and 998.492 kg/m3 | 1452.6 m/s
303.15 K | 994.744 kg/m3 and 994.719 kg/m3 and 994.759 kg/m3 | 1438.2 m/s and 1437.7 m/s
308.15 K | 990.956 kg/m3 and 990.971 kg/m3 | 1423.6 m/s
313.15 K | 987.136 kg/m3 and 987.113 kg/m3 and 987.152 kg/m3 | 1409.2 m/s and 1408.5 m/s and 1409.1 m/s
318.15 K | 983.284 kg/m3 and 983.257 kg/m3 and 983.297 kg/m3 | 1394.6 m/s and 1394 m/s and 1394.5 m/s
323.15 K | 979.394 kg/m3 and 979.371 kg/m3 and 979.406 kg/m3 | 1380 m/s and 1379.6 m/s and 1379.9 m/s

CCC(O)CO (stereo not drawn) [1,2-butanediol] + CC(O)CCO
[2], x1 = 1
Conditions | mass density [kg/m3] | speed of sound [m/s]
298.15 K | 998.509 | 1452.6
303.15 K | 994.759 | 1438.2
308.15 K | 990.971 | 1423.6
313.15 K | 987.152 | 1409.1
318.15 K | 983.297 | 1394.5
323.15 K | 979.406 | 1379.9

CCC(O)CO (stereo not drawn) [1,2-butanediol] + OCCc1ccccc1
[2], x2 = 0
Conditions | mass density [kg/m3] | speed of sound [m/s]
298.15 K | 998.509 | 1452.6
303.15 K | 994.719 | 1437.7
308.15 K | 990.971 | 1423.6
313.15 K | 987.113 | 1408.5
318.15 K | 983.257 | 1394
323.15 K | 979.371 | 1379.6

CC(O)CCO (stereo not drawn) [1,3-butanediol]
[1]
Conditions | mass density [kg/m3] | speed of sound [m/s]
298.15 K | 1001.82 | 1527.8
303.15 K | 998.418 | 1514.1
308.15 K | 994.987 | 1500.2
313.15 K | 991.528 | 1486.3
318.15 K | 988.035 | 1472.3
323.15 K | 984.506 | 1458.3

OCCc1ccccc1 [2-phenylethanol]
[1]
Conditions | mass density [kg/m3] | speed of sound [m/s]
298.15 K | 1016.14 | 1526.1
303.15 K | 1012.39 | 1510.5
308.15 K | 1008.61 | 1494.7
313.15 K | 1004.75 | 1479.2
318.15 K | 1000.93 | 1463.2
323.15 K | 997.075 | 1447.7

OCc1ccccc1 [benzenemethanol]
[1]
Conditions | mass density [kg/m3] | speed of sound [m/s]
298.15 K | 1041.22 | 1525.2
303.15 K | 1037.35 | 1509.3
308.15 K | 1033.47 | 1493.6
313.15 K | 1029.58 | 1478
318.15 K | 1025.67 | 1462.6
323.15 K | 1021.75 | 1447.3

OCc1ccccc1 [benzenemethanol] + CCC(O)CO
[2], x1 = 1
Conditions | mass density [kg/m3] | speed of sound [m/s]
298.15 K | 1041.22 | 1525.2
303.15 K | 1037.35 | 1509.3
308.15 K | 1033.47 | 1493.6
313.15 K | 1029.58 | 1478
318.15 K | 1025.67 | 1462.6
323.15 K | 1021.75 | 1447.3

CCC(C)O (stereo not drawn) [butan-2-ol]
[1]
Conditions | mass density [kg/m3] | speed of sound [m/s]
298.15 K | 803.103 | 1212.7
303.15 K | 798.891 | 1194.5
308.15 K | 794.588 | 1176.2
313.15 K | 790.191 | 1157.9
318.15 K | 785.692 | 1139.5
323.15 K | 781.09 | 1121

CCC(C)O (stereo not drawn) [butan-2-ol] + CCC(O)CO
[2], x2 = 0
Conditions | mass density [kg/m3] | speed of sound [m/s]
298.15 K | 803.103 | 1212.7
303.15 K | 798.891 | 1194.5
308.15 K | 794.588 | 1176.2
313.15 K | 790.191 | 1157.9
318.15 K | 785.692 | 1139.5
323.15 K | 781.09 | 1121
